# Laboratory results reported in PMC4805166, “Synthetic Cyclolipopeptides Selective against Microbial, Plant and Animal Cell Targets by Incorporation of D-Amino Acids or Histidine” (PLoS ONE, 2016).
# “And” between values parts separate entries of the source, which are not always exact repeats. Identical values can stand only once. Like-named read-outs stand apart in the source and are kept apart here. Where a SMILES comes first, the peptide text is derived from it. Side-chain parts run from the residue outwards. [ ]: non-standard residue; d: D form. The star is where a group is joined. Pentanoyl(4-Me) = CC(C)CCC(=O)*; Octanoyl = CCCCCCCC(=O)*; Hexanoyl = CCCCCC(=O)*
# How the values were obtained:
# [1] = test system: Pseudomonas syringae pv. syringae EPS94; assay type: cell-based; details: 48 h
# Method: (§1) The following plant pathogenic bacterial strains were used: Erwinia amylovora PMV6076 (Institut National de la Recherche Agronomique, Angers, France), Pseudomonas syringae pv. syringae EPS94 (Institut de Tecnologia Agroalimentària, Universitat de Girona, Spain) and Xanthomonas axonopodis pv. vesicatoria 2133–2 (Instituto Valenciano de Investigaciones Agrarias, Valencia, Spain). All bacteria were stored in Luria Bertani (LB) broth supplemented with glycerol (20%) and maintained at -80°C. Bacteria were scrapped from LB agar after growing for 24–48 h at 25°C. The cell material was suspended in sterile water to obtain a suspension of 10^8 CFU mL^-1.
# (§2) Lyophilized peptides were solubilized in sterile Milli-Q water to a final concentration of 1 mM and filter sterilized through a 0.22-μm pore filter. For minimum inhibitory concentration (MIC) assessment, dilutions of the compounds were made to obtain a stock concentration of […]. For antibacterial activity twenty microlitres of each dilution were mixed in a microtiter plate well with 20 μL of the corresponding suspension of the bacterial indicator, 160 μL of Trypticase Soy Broth (TSB) (BioMèrieux, France) to a total volume of 200 μL. For antifungal activity 20 μL of each stock solution were mixed in a microtiter plate well with 80 μL of the corresponding suspension of the fungal pathogen and 100 μL of double concentrated PDB to a total volume of 200 μL containing 0.003% w/v of choramphenicol.
# (§3) Three replicates for each strain, compound and concentration were used. Microbial growth was determined by optical density measurement at 600 nm (Bioscreen C, Labsystem, Helsinki, Finland). For antibacterial activity microplates were incubated at 25°C with 20 sec shaking before hourly absorbance measurement for 48 h. For antifungal activity microplates were incubated at 20°C with 1 min shaking before absorbance measurement that were done every two hours during seven days. The experiment was repeated twice. The MIC was taken as the lowest compound concentration with no growth at the end of the experiment.
# [2] = test system: Xanthomonas axonopodis pv. vesicatoria 2133–2; assay type: cell-based; details: TSB, 25°C, 48 h, OD 600 nm; tested at 3.1, 6.2, 12.5, 25, 50 μM; three replicates, experiment repeated twice; MIC = lowest concentration with no growth
# Method: as §1, §2, §3
# [3] = test system: Erwinia amylovora PMV6076; test: MIC, in vitro growth inhibition; assay type: cell-based; details: TSB, 25°C, 48 h, OD 600 nm; tested at 3.1, 6.2, 12.5, 25, 50 μM; three replicates, experiment repeated twice; MIC = lowest concentration with no growth
# Method: as §1, §2, §3
# [4] = test system: Fusarium oxysporum f. sp. lycopersici FOL 3 race 2; test: MIC, antifungal growth inhibition; assay type: cell-based
# Method: Fusarium oxysporum f. sp. lycopersici FOL 3 race 2 (ATCC 201829, American Type Culture Collection) was used as fungal pathogen. The strain was cultured on potato dextrose agar (PDA) plates (Difco) and microconidia were obtained after growth at 25°C. The concentration of conidia was determined using a hemacytometer and adjusted to 10^4 conidia mL^-1.
# as §2, §3
# [5] = test system: erythrocyte suspensions of horse blood; details: horse erythrocytes 5% vol/vol, TRIS buffer pH 7.2, 1 h at 37°C, absorbance 540 nm, relative to melittin 100 μM, ± confidence interval (α = 0.05); for Hemolysis (%) 150 µM: 150 µM peptide; for Hemolysis (%) 250 µM: 250 µM peptide;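 on all read-outs here: Read-out is hemoglobin release into the supernatant, with a buffer-only blank subtracted as the 0% baseline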
# Method: Blood was centrifuged at 6000g for 5 min, washed three times with TRIS buffer (10 mM TRIS, 150 mM NaCl, pH 7.2) and diluted.
# Compounds were solubilized in TRIS buffer and mixed with horse erythrocytes and the final concentrations tested were 250 and 150 μM. The mixture was incubated under continuous shaking for 1 h at 37°C. Then, the tubes were centrifuged at 3500g for 10 min, 80 μL aliquots of the supernatant transferred to 100-well microplates (Bioscreen), diluted with 80 μL water, and the absorbance measured at 540 nm (Bioscreen). Complete hemolysis was obtained by the addition of melittin at 100 μM (Sigma-Aldrich Corporation, Madrid, Spain). The percentage of hemolysis (H) was calculated using the equation: H = 100×[(Op−Ob)/(Om−Ob)], where Op was the density for a given compound concentration, Ob for the buffer, and Om for the melittin positive control.
# [6] = PDB with 0.003% chloramphenicol, 20°C, seven days, OD 600 nm, tested at 3.1, 6.2, 12.5, 25, 50 μM, three replicates, repeated twice
Structure (SMILES),MIC Pss [1],MIC Xav [2],MIC Ea [3],"MIC Fo [4, 6]",Hemolysis (%) 150 µM [5],Hemolysis (%) 250 µM [5],MIC Fo [4]
"CCCCCC(=O)NCCCC[C@H]1NC(=O)[C@H](CCCCN)NC(=O)[C@H](CC(C)C)NC(=O)[C@H](CCCCN)NC(=O)[C@H](CCCCN)NC(=O)[C@H](CCC(N)=O)NC(=O)[C@H](CC(C)C)NC(=O)[C@H](CCCCN)NC(=O)[C@H](CCCCN)NC(=O)[C@H](Cc2ccccc2)NC1=O [BPC628, c(KKLKk(CO-nC5H11)FKKLQ)] (cyclo(FKKLQKKLK[dK](Hexanoyl)))",12.5 to 25 µM,6.2 to 12.5 µM,25 to 50 µM,6.2 to 12.5 µM,19 ± 2%,34 ± 3%,–
"CC(C)CCC(=O)NCCCC[C@H]1NC(=O)[C@H](CCCCN)NC(=O)[C@H](CC(C)C)NC(=O)[C@H](CCCCN)NC(=O)[C@H](CCCCN)NC(=O)[C@H](CCC(N)=O)NC(=O)[C@H](CC(C)C)NC(=O)[C@H](CCCCN)NC(=O)[C@H](CCCCN)NC(=O)[C@H](Cc2ccccc2)NC1=O [BPC630, c(KKLKk(CO-isoC5H11)FKKLQ)] (cyclo(FKKLQKKLK[dK](Pentanoyl(4-Me))))",6.2 to 12.5 µM,6.2 to 12.5 µM,25 to 50 µM,6.2 to 12.5 µM,22 ± 2%,28 ± 3%,–
"CCCCCC(=O)NCCCC[C@@H]1NC(=O)[C@H](CCCCN)NC(=O)[C@H](CC(C)C)NC(=O)[C@H](CCCCN)NC(=O)[C@H](CCCCN)NC(=O)[C@H](CCC(N)=O)NC(=O)[C@H](CC(C)C)NC(=O)[C@H](CCCCN)NC(=O)[C@H](CCCCN)NC(=O)[C@H](Cc2c[nH]cn2)NC1=O [BPC636, c(KKLKK(CO-nC5H11)HKKLQ)] (cyclo(HKKLQKKLKK(Hexanoyl)))",6.2 to 12.5 µM,12.5 to 25 µM,25 to 50 µM,6.2 to 12.5 µM,5 ± 2%,16 ± 5%,–
"CC(C)CCC(=O)NCCCC[C@@H]1NC(=O)[C@H](CCCCN)NC(=O)[C@H](CC(C)C)NC(=O)[C@H](CCCCN)NC(=O)[C@H](CCCCN)NC(=O)[C@H](CCC(N)=O)NC(=O)[C@H](CC(C)C)NC(=O)[C@H](CCCCN)NC(=O)[C@H](CCCCN)NC(=O)[C@H](Cc2c[nH]cn2)NC1=O [BPC638, c(KKLKK(CO-isoC5H11)HKKLQ)] (cyclo(HKKLQKKLKK(Pentanoyl(4-Me))))",6.2 to 12.5 µM,25 to 50 µM,25 to 50 µM,6.2 to 12.5 µM,6 ± 2%,8 ± 5%,–
"CCCCCCCC(=O)NCCCC[C@H]1NC(=O)[C@H](CCCCN)NC(=O)[C@H](CC(C)C)NC(=O)[C@H](CCCCN)NC(=O)[C@H](CCCCN)NC(=O)[C@H](CCC(N)=O)NC(=O)[C@H](CC(C)C)NC(=O)[C@H](CCCCN)NC(=O)[C@H](CCCCN)NC(=O)[C@H](Cc2ccccc2)NC1=O [BPC666, c(KKLKk(CO-C7H15)FKKLQ)] (cyclo(FKKLQKKLK[dK](Octanoyl)))",12.5 to 25 µM,12.5 to 25 µM,25 to 50 µM,6.2 to 12.5 µM,61 ± 2%,73 ± 3%,–
"CCCCCCCC(=O)NCCCC[C@@H]1NC(=O)[C@H](CCCCN)NC(=O)[C@H](CC(C)C)NC(=O)[C@H](CCCCN)NC(=O)[C@H](CCCCN)NC(=O)[C@H](CCC(N)=O)NC(=O)[C@H](CC(C)C)NC(=O)[C@H](CCCCN)NC(=O)[C@H](CCCCN)NC(=O)[C@@H](Cc2ccccc2)NC1=O [BPC668, c(KKLKK(CO-C7H15)fKKLQ)] (cyclo(KKLKK(Octanoyl)[dF]KKLQ))",12.5 to 25 µM,6.2 to 12.5 µM,25 to 50 µM,6.2 to 12.5 µM,79 ± 2%,79 ± 1%,–
"CCCCCCCC(=O)NCCCC[C@@H]1NC(=O)[C@H](CCCCN)NC(=O)[C@H](CC(C)C)NC(=O)[C@H](CCCCN)NC(=O)[C@H](CCCCN)NC(=O)[C@H](CCC(N)=O)NC(=O)[C@H](CC(C)C)NC(=O)[C@H](CCCCN)NC(=O)[C@H](CCCCN)NC(=O)[C@H](Cc2c[nH]cn2)NC1=O [BPC670, c(KKLKK(CO-C7H15)HKKLQ)] (cyclo(HKKLQKKLKK(Octanoyl)))",12.5 to 25 µM,12.5 to 25 µM,25 to 50 µM,3.1 to 6.2 µM,34 ± 1%,40 ± 1%,–
"CCCCCC(=O)N[C@@H](CCCCN)C(=O)N[C@@H](CC(C)C)C(=O)NCCCC[C@H]1NC(=O)[C@H](CCCCN)NC(=O)[C@H](CC(C)C)NC(=O)[C@H](CCCCN)NC(=O)[C@H](CCCCN)NC(=O)[C@H](CCC(N)=O)NC(=O)[C@H](CC(C)C)NC(=O)[C@H](CCCCN)NC(=O)[C@H](CCCCN)NC(=O)[C@H](Cc2ccccc2)NC1=O [BPC672, c(KKLKk(LK-CO-nC5H11)FKKLQ)] (cyclo(FKKLQKKLK[dK]([Leu-Lys-Hexanoyl])))",6.2 to 12.5 µM,3.1 to 12.5 µM and 6.2 to 12.5 µM,25 to 50 µM,3.1 to 6.2 µM,33 ± 2%,33 ± 2%,3.1 to 6.2 µM
"CCCCCC(=O)N[C@@H](CCCCN)C(=O)N[C@@H](CC(C)C)C(=O)NCCCC[C@@H]1NC(=O)[C@H](CCCCN)NC(=O)[C@H](CC(C)C)NC(=O)[C@H](CCCCN)NC(=O)[C@H](CCCCN)NC(=O)[C@H](CCC(N)=O)NC(=O)[C@H](CC(C)C)NC(=O)[C@H](CCCCN)NC(=O)[C@H](CCCCN)NC(=O)[C@@H](Cc2ccccc2)NC1=O [BPC674, c(KKLKK(LK-CO-nC5H11)fKKLQ)] (cyclo(KKLKK([Leu-Lys-Hexanoyl])[dF]KKLQ))",6.2 to 12.5 µM,3.1 to 12.5 µM and 6.2 to 12.5 µM,25 to 50 µM,3.1 to 6.2 µM,51 ± 2%,56 ± 2%,3.1 to 6.2 µM
CCCCCC(=O)NCCCC[C@H]1NC(=O)[C@H](CCCCN)NC(=O)[C@H](CCC(N)=O)NC(=O)[C@H](CC(C)C)NC(=O)[C@H](CCCCN)NC(=O)[C@H](CCCCN)NC(=O)[C@H](Cc2ccccc2)NC(=O)[C@H](CCCCN)NC(=O)[C@H](CCCCN)NC(=O)[C@H](CC(C)C)NC1=O [BPC678] (cyclo(FKKLQK[dK](Hexanoyl)LKK)),12.5 to 25 µM,6.2 to 12.5 µM,25 to 50 µM,3.1 to 6.2 µM,68 ± 3%,73 ± 4%,–
"CCCCCC(=O)NCCCC[C@@H]1NC(=O)[C@H](CCCCN)NC(=O)[C@H](CCC(N)=O)NC(=O)[C@H](CC(C)C)NC(=O)[C@H](CCCCN)NC(=O)[C@H](CCCCN)NC(=O)[C@@H](Cc2ccccc2)NC(=O)[C@H](CCCCN)NC(=O)[C@H](CCCCN)NC(=O)[C@H](CC(C)C)NC1=O [BPC680, c(KK(CO-nC5H11)LKKfKKLQ)] (cyclo(KK(Hexanoyl)LKK[dF]KKLQ))",25 to 50 µM,12.5 to 25 µM,25 to 50 µM,3.1 to 6.2 µM,77 ± 2%,81 ± 4%,–
CCCCCC(=O)NCCCC[C@@H]1NC(=O)[C@H](CCCCN)NC(=O)[C@H](CCC(N)=O)NC(=O)[C@H](CC(C)C)NC(=O)[C@H](CCCCN)NC(=O)[C@H](CCCCN)NC(=O)[C@H](Cc2c[nH]cn2)NC(=O)[C@H](CCCCN)NC(=O)[C@H](CCCCN)NC(=O)[C@H](CC(C)C)NC1=O [BPC682] (cyclo(HKKLQKK(Hexanoyl)LKK)),12.5 to 25 µM,12.5 to 25 µM,25 to 50 µM,3.1 to 6.2 µM,20 ± 3%,27 ± 1%,–
